Measurements reported in ChEMBL document CHEMBL5634134, “Design, synthesis, and biological evaluation of novel 4,4'-bipyridine derivatives acting as CDK9-Cyclin T1 protein-protein interaction inhibitors against triple-negative breast cancer” (Eur J Med Chem, 2023).
Active and inactive are the calls of the source. The calls are words filed in the database; no cut-off is given here.

What was measured:
[1] = tested on: MDA-MB-231; assay: cells; conditions: Homo sapiens, MDA-MB-231, 72 h
[2] = tested on: HeLa; assay: cells; conditions: Homo sapiens, 72 h
[3] = tested on: MDA-MB-231; assay: Inhibition of RNA Polymerase II CTD phosphorylation at ser2 residue in human MDA-MB-231 cells at 1 uM incubated for 24 hrs by Western blotting analysis; format: cell-based
[4] = Selectivity index, ratio of IC50 for the cytotoxicity against human LO2 cells to IC50 for antiproliferative activity against human MDA-MB-231 cells; format: toxicity, cell-based; conditions: LO2 cells versus MDA-MB-231 cells, read-out: Ratio IC50
[5] = Cytotoxicity against human L02 cells assessed as inhibition of cell growth incubated for 72 hrs by MTT assay; format: toxicity, cell-based
[6] = tested on: A549; assay: cells; conditions: Homo sapiens, A549, 72 h
[7] = tested on: BT-549; assay: cells; conditions: Homo sapiens, BT-549, 72 h
[8] = molecular target: CDK9/cyclin T1 (Homo sapiens, UniProt P50750); assay: Inhibition of human CDK9/Cyclin T1 in presence of ATP by radiometric kinase assay; format: protein-complex assay
Chain of CDK9/cyclin T1 (O60563 whole entry): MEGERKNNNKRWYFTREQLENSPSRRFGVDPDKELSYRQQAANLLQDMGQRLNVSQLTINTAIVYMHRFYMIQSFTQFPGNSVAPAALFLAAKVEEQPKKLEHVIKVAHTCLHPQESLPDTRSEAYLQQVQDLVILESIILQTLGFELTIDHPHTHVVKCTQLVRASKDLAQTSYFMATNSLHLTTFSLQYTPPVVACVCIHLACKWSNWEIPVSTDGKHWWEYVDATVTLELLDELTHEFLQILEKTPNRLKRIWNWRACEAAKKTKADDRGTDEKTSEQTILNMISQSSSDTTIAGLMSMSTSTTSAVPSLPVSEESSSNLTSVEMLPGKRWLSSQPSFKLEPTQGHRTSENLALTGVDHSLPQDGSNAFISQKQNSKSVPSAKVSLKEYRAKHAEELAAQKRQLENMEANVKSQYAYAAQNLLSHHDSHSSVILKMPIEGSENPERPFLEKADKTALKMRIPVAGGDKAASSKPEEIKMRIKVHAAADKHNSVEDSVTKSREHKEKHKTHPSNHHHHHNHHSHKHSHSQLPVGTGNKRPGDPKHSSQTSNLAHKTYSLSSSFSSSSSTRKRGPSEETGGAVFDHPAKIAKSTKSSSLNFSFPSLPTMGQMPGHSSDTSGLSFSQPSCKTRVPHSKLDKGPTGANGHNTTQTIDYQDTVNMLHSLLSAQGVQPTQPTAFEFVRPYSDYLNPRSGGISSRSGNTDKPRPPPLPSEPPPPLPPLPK
Chain of CDK9/cyclin T1 (P50750 whole entry): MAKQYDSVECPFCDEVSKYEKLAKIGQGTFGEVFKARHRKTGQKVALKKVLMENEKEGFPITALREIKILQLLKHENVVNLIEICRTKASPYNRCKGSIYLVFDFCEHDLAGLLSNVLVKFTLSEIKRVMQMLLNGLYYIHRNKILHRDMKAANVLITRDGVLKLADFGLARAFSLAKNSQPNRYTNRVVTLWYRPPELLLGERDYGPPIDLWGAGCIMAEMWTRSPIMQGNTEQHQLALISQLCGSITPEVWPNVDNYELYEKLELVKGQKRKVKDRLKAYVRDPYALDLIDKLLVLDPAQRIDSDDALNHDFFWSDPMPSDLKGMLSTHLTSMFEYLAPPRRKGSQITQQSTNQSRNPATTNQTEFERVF

[9] = tested on: 4T1; assay: cells; conditions: Mus musculus, 4T1, 72 h
[10] = tested on: MDA-MB-231; assay: Induction of apoptosis in human MDA-MB-231 cells assessed as viable cells at 1000 nM incubated for 72 hrs by Annexin V-FITC/PI staining based flow cytometry analysis (reference value: 94.81 %); format: functional; conditions: read-out: Activity
[11] = tested on: HepG2; assay: cells; conditions: Homo sapiens, HepG2, 72 h
[12] = Cytotoxicity against human MCF-10A cells assessed as inhibition of cell growth incubated for 72 hrs by MTT assay; format: toxicity, cell-based
[13] = molecular target: CDK9/cyclin T1 (Homo sapiens) (UniProt O60563+P50750); assay: Inhibition of CDK9/Cyclin T1 protein-protein interaction in human MDA-MB-231 cells at 3 uM incubated for 8 hrs by co-immunoprecipitation assay; format: cell-based
[14] = tested on: MDA-MB-231; assay: Induction of apoptosis in human MDA-MB-231 cells assessed as late apoptotic cells at 1000 nM incubated for 72 hrs by Annexin V-FITC/PI staining based flow cytometry analysis (reference value: 4.04 %); format: functional
[15] = Cytotoxicity against human MRC5 cells assessed as inhibition of cell growth incubated for 72 hrs by MTT assay; format: toxicity, cell-based
[16] = tested on: MDA-MB-231; assay: Induction of apoptosis in human MDA-MB-231 cells assessed as necrotic cells at 1000 nM incubated for 72 hrs by Annexin V-FITC/PI staining based flow cytometry analysis (reference value: 0.49 %); format: functional
[17] = tested on: MDA-MB-231; assay: Induction of apoptosis in human MDA-MB-231 cells assessed as early apoptotic cells at 1000 nM incubated for 72 hrs by Annexin V-FITC/PI staining based flow cytometry analysis (reference value: 0.66 %); format: functional
[18] = Cytotoxicity against HK-2 cells assessed as inhibition of cell growth incubated for 72 hrs by MTT assay; format: toxicity, cell-based; conditions: human
[19] = tested on: Hs-578T; assay: cells; conditions: Homo sapiens, 72 h
[20] = tested on: T47D; assay: Antiproliferative activity against human T47D cells assessed as inhibition of cell growth by MTT assay; format: functional, cell-based
[21] = tested on: MDA-MB-468; assay: Antiproliferative activity against human MDA-MB-468 cells assessed as inhibition of cell growth by MTT assay; format: functional, cell-based
[22] = Cytotoxicity against human MCF-10A cells assessed as inhibition of cell growth by MTT assay; format: toxicity, cell-based
[23] = tested on: MDA-MB-231; assay: Antiproliferative activity against human MDA-MB-231 cells assessed as inhibition of cell growth by MTT assay; format: functional, cell-based
[24] = tested on: BT-549; assay: Antiproliferative activity against human BT-549 cells assessed as inhibition of cell growth by MTT assay; format: functional, cell-based
[25] = Cytotoxicity against human L02 cells assessed as inhibition of cell growth by MTT assay; format: toxicity, cell-based
[26] = Cytotoxicity against HEK293T cells assessed as inhibition of cell growth by MTT assay; format: toxicity, cell-based, HEK-293T; conditions: human
[27] = tested on: MDA-MB-231; assay: Antiproliferative activity against human MDA-MB-231 cells assessed as inhibition of cell growth incubated for 48 hrs by MTT assay; format: functional, cell-based; conditions: MDA-MB-231, 48 h
[28] = tested on: BT-549; assay: cells; conditions: Homo sapiens
[29] = tested on: MDA-MB-436; assay: cells; conditions: Homo sapiens
[30] = tested on: MDA-MB-231; assay: cells; conditions: Homo sapiens

SMILES	IC50 [1] [nM]	IC50 [2] [nM]	IC50 at 72 h [5] [nM]	IC50 [6] [nM]	other results
CCOc1ccc(C(=O)Nc2cc(-c3ccnc(N4CCC(O)CC4)c3)ccn2)cc1	103	1360	132	5340	inhibition [3]: Active; selectivity ratio [4]: 1
O=C(Nc1cc(-c2ccnc(N3CCC(O)CC3)c2)ccn1)c1ccccc1Cl	> 10000	> 10000	> 10000	> 10000	–
COc1ccc(CNc2cc(-c3ccnc(N4CCC(O)CC4)c3)ccn2)cc1	3220	> 10000	> 10000	> 10000	inhibition [3]: Active
Cc1ccc(C(=O)Nc2cc(-c3ccnc(N4CCC(O)CC4)c3)ccn2)cc1	261	3280	875	2400	inhibition [3]: Active
COc1ccc(C(=O)Nc2cc(-c3ccnc(N4CCC(N)CC4)c3)ccn2)cc1	1160	> 10000	1380	2370	–
CC1CCN(c2cc(-c3ccnc(NC(=O)c4ccc(F)cc4)c3)ccn2)CC1	> 10000	> 10000	> 10000	> 10000	–
Cc1ccccc1C(=O)Nc1cc(-c2ccnc(N3CCC(O)CC3)c2)ccn1	> 10000	> 10000	> 10000	> 10000	–
N[C@H]1CC[C@H](Nc2cc(-c3cccc(NCc4cccc(F)c4)n3)c(Cl)cn2)CC1	80	150	278	1620	IC50 [7]: 53 nM; IC50 [8]: < 0.4 nM; IC50 [9]: 116 nM; viability at 1 µM [10]: 19.3%; IC50 [11]: 473 nM; selectivity ratio [4]: 3; IC50 at 72 h [12]: 108 nM; inhibition [13]: inactive; Activity [14]: 42.9%; IC50 at 72 h [15]: 197 nM; Activity [16]: 0.2%; Activity [17]: 37.6%; IC50 at 72 h [18]: 187 nM; IC50 [19]: 74 nM
CCOc1cc(/C=N/O)ccc1OCC#CC1c2c(cc3c(c2OC)OCO3)CCN1C (configuration not stated)	–	–	–	–	IC50 [20]: 52500 nM; IC50 [21]: 7400 nM; IC50 [22]: 35500 nM; IC50 [23]: 6200 nM; IC50 [24]: 12600 nM; IC50 [25]: > 100000 nM; IC50 [26]: > 100000 nM
Cc1sc2c(c1C)C(c1ccc(Cl)cc1)=N[C@@H](CC(=O)OC(C)(C)C)c1nnc(C)n1-2	–	–	–	–	IC50 [27]: 3150 nM
CCN1CCN(c2cc(-c3ccnc(NC(=O)c4ccc(OC)cc4)c3)ccn2)CC1	1000	3260	6890	1580	–
COc1cc(F)ccc1-c1ncnc(Nc2cccc(C[S@](C)(=N)=O)c2)n1 [ATUVECICLIB]	–	–	–	–	IC50 [28]: 2010 nM; IC50 [29]: 630 nM; IC50 [30]: 1320 nM
O=C(Nc1cc(-c2ccnc(N3CCCC(CO)C3)c2)c(Cl)cn1)c1ccc(F)cc1 (configuration not stated)	585	276	> 10000	1850	–
COc1cccc2c1C(=O)c1c(O)c3c(c(O)c1C2=O)C[C@@](O)(C(=O)CO)C[C@@H]3O[C@H]1C[C@H](N)[C@H](O)[C@H](C)O1 [DOXORUBICIN]	–	–	–	–	IC50 [27]: 153 nM
COc1ccc(C(=O)Nc2cc(-c3ccnc(N4CCC(C)CC4)c3)ccn2)cc1	184	1590	4170	2710	–
Cc1ccc(C(=O)Nc2cc(-c3ccnc(N4CCC(C)CC4)c3)ccn2)cc1	1280	3850	> 10000	> 10000	–
Cc1ccc(C(=O)Nc2cc(-c3ccnc(N4CCCC(O)C4)c3)ccn2)cc1 (configuration not stated)	726	1990	591	> 10000	–
